Columns and labels:
[1] = target: Dv-ACE-1 (Dictyocaulus viviparus, UniProt Q0H0R6); assay: Ellman assay, transfected COS-7 extract, logistic fit; format: biochemical
[2] = tested on: CC(=O)SCC[N+](C)(C)C; assay: Ellman assay, transfected COS-7 extract, fit with Km, Kss and b; format: biochemical, Dictyocaulus viviparus; conditions: pH 7, 0.3 mM DTNB, 167 mM NaCl, substrate-inhibition model
[3] = tested on: CCC(=O)SCC[N+](C)(C)C; assay: as above; format: biochemical, Dictyocaulus viviparus; conditions: pH 7, 0.3 mM DTNB, 167 mM NaCl, substrate-inhibition model
[4] = tested on: CCCC(=O)SCC[N+](C)(C)C; assay: as above; format: biochemical, Dictyocaulus viviparus; conditions: pH 7, 0.3 mM DTNB, 167 mM NaCl, substrate-activation model

Molecule	IC50 [1]	Km [2]	Km [3]	Km [4]
CNC(=O)Oc1ccc2c(c1)[C@]1(C)CCN(C)[C@@H]1N2C [physostigmine]	0.126 µM			
CC(C)NP(=O)(NC(C)C)OP(=O)(NC(C)C)NC(C)C [iso-OMPA]	> 3000 µM			
C=CC[N+](C)(C)c1ccc(CCC(=O)CCc2ccc([N+](C)(C)CC=C)cc2)cc1 [BW284c51]	0.303 µM			
Dv-ACE-1 (Dictyocaulus viviparus)		7.51 ± 0.21 × 10^−4 M	1.59 ± 0.03 × 10^−3 M	4.32 ± 1.61 × 10^−5 M
CCN(CC)C(C)CN1c2ccccc2Sc2ccccc21 (stereo not shown) [ethopropazine]	137 µM			
